From ChEMBL document CHEMBL1944592 (Bioorg Med Chem Lett, 2012)

Legend:
Assay type in all cases: functional, cell-based
[1] = target: T1, Peroxisome proliferator-activated receptor gamma (Homo sapiens, UniProt P37231); experiment: Agonist activity at human PPARgamma expressed in MG-63 cells by reporter gene-based transactivation assay
T1 sequence (P37231 whole entry): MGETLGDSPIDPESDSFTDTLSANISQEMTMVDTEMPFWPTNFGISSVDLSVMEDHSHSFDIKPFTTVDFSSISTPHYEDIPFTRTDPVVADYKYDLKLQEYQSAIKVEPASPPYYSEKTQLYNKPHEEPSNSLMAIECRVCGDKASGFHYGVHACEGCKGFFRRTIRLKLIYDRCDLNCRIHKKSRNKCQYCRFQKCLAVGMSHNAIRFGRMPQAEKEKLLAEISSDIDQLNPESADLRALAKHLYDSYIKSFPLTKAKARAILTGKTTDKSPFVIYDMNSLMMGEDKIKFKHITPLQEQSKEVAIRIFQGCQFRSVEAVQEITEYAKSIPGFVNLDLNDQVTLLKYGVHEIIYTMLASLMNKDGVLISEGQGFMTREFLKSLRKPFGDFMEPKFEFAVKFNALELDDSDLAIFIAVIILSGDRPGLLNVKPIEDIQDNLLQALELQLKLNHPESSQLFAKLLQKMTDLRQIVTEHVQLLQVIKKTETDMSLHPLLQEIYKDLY

[2] = target: T2, Peroxisome proliferator-activated receptor gamma (Homo sapiens) (UniProt P37231); experiment: Agonist activity at human PPARgamma expressed in MG-63 cells at 2 times EC50 concentration by reporter gene-based transactivation assay relative to PPARgamma full agonist
T2 sequence (whole entry): T1 sequence (P37231 whole entry)

[3] = target: T1, Peroxisome proliferator-activated receptor gamma; experiment: Partial agonist activity at human PPARgamma expressed in MG-63 cells by reporter gene-based transactivation assay
[4] = target: T2, Peroxisome proliferator-activated receptor gamma (Homo sapiens); experiment: Partial agonist activity at human PPARgamma expressed in MG-63 cells at 2 times EC50 concentration by reporter gene-based transactivation assay relative to PPARgamma full agonist

COc1cc(O)c2c(c1C(=O)NCc1cc(CCC(=O)O)cc3ccccc13)OC1=CC(O)=C(C(C)=O)C(=O)[C@]12C
EC50 [1]: 320 nM
Emax [2]: 109%

COc1cc(O)c2c(c1C(=O)NCc1cc(CCCC(=O)O)cc3ccccc13)OC1=CC(O)=C(C(C)=O)C(=O)[C@]12C
EC50 [1]: 67 nM
Emax [2]: 105%

CCOc1cc(CNC(=O)c2c(OC)cc(O)c3c2OC2=CC(O)=C(C(C)=O)C(=O)[C@]23C)c2ccccc2c1
EC50 [3]: 240 nM
Emax [4]: 22%

COC(=O)CCc1cc(CNC(=O)c2c(OC)cc(O)c3c2OC2=CC(O)=C(C(C)=O)C(=O)[C@]23C)c2ccccc2c1
EC50 [3]: 130 nM
Emax [4]: 79%

COc1cc(O)c2c(c1C(=O)NCc1cc(C(=O)O)cc3ccccc13)OC1=CC(O)=C(C(C)=O)C(=O)[C@]12C
EC50 [3]: > 1000 nM

COc1cc(O)c2c(c1C(=O)NCc1cc(O)cc3ccccc13)OC1=CC(O)=C(C(C)=O)C(=O)[C@]12C
EC50 [3]: 130 nM
Emax [4]: 29%

COc1cc(O)c2c(c1C(=O)NCc1cc(OC(C)=O)cc3ccccc13)OC1=CC(O)=C(C(C)=O)C(=O)[C@]12C
EC50 [3]: 680 nM
Emax [4]: 50%

COCc1cc(CNC(=O)c2c(OC)cc(O)c3c2OC2=CC(O)=C(C(C)=O)C(=O)[C@]23C)c2ccccc2c1
EC50 [3]: 200 nM
Emax [4]: 44%

COC(=O)c1cc(CNC(=O)c2c(OC)cc(O)c3c2OC2=CC(O)=C(C(C)=O)C(=O)[C@]23C)c2ccccc2c1
EC50 [3]: 880 nM
Emax [4]: 55%

COc1cc(O)c2c(c1C(=O)NCc1cc(C)cc3ccccc13)OC1=CC(O)=C(C(C)=O)C(=O)[C@]12C
EC50 [3]: 210 nM
Emax [4]: 51%

COc1cc(CNC(=O)c2c(OC)cc(O)c3c2OC2=CC(O)=C(C(C)=O)C(=O)[C@]23C)c2ccccc2c1
EC50 [3]: 94 nM
Emax [4]: 32%

COC(=O)CCCc1cc(CNC(=O)c2c(OC)cc(O)c3c2OC2=CC(O)=C(C(C)=O)C(=O)[C@]23C)c2ccccc2c1
EC50 [1]: 42 nM
Emax [2]: 99%
